The target in experiment [1] is T1, E3 ubiquitin-protein ligase XIAP (Homo sapiens, UniProt P98170). As to the kind of experiment: XIAP antagonists, biochemical, IAP family, fluorescence polarization (AID 1018). Type of experiment: functional.
The target of experiment [2] is T1, E3 ubiquitin-protein ligase XIAP. As to the kind of experiment: Counter Screen using XIAP-Bir3 for Chemical Antagonists of Bir1/2 domains of IAP-family anti-apoptotic proteins. [Related pubchem assays (depositor defined):AID1018, AID1449, AID1514, AID1638, AID1749, AID1750, AID488957, AID488963]. For orientation: A counterscreen serves to expose hits that act by an unwanted route or on another target.

Experiment [3] has as its target T2, SUMO-activating enzyme (Homo sapiens, UniProt Q9UBT2). As to the kind of experiment: SUMOylation inhibitor hit validation, confirmation, SUMOylation inhibitor project, biochemical, AlphaScreen (AID 2018). It is filed as functional. (Bead proximity is the source of the signal in Alpha formats.)
The nature of experiment [4]: Luminescence Cell-Based Dose Retest to Confirm Inhibitors of Cancer Stem Cells. [Related pubchem assays (depositor defined):AID2717, AID2721]. Conditions: Homo sapiens. It is filed as functional.
Experiment [5] concerns the target T2, SUMO-activating enzyme. As to the kind of experiment: inhibitors of in vitro SUMOylation cascade, primary screen, biochemical, HTRF, uHTS (AID 2006). It is filed as protein-complex assay. In general terms: Time-resolved FRET reads energy transfer from a long-lived donor to a nearby acceptor.
The target of experiment [6] is T3, Voltage-gated N-type calcium channel alpha-1B subunit/Amyloid beta A4 precursor protein-binding family A member 1 (Homo sapiens, UniProt Q00975+Q02410). It is filed as protein assay.
T3 sequence (Q00975 whole entry): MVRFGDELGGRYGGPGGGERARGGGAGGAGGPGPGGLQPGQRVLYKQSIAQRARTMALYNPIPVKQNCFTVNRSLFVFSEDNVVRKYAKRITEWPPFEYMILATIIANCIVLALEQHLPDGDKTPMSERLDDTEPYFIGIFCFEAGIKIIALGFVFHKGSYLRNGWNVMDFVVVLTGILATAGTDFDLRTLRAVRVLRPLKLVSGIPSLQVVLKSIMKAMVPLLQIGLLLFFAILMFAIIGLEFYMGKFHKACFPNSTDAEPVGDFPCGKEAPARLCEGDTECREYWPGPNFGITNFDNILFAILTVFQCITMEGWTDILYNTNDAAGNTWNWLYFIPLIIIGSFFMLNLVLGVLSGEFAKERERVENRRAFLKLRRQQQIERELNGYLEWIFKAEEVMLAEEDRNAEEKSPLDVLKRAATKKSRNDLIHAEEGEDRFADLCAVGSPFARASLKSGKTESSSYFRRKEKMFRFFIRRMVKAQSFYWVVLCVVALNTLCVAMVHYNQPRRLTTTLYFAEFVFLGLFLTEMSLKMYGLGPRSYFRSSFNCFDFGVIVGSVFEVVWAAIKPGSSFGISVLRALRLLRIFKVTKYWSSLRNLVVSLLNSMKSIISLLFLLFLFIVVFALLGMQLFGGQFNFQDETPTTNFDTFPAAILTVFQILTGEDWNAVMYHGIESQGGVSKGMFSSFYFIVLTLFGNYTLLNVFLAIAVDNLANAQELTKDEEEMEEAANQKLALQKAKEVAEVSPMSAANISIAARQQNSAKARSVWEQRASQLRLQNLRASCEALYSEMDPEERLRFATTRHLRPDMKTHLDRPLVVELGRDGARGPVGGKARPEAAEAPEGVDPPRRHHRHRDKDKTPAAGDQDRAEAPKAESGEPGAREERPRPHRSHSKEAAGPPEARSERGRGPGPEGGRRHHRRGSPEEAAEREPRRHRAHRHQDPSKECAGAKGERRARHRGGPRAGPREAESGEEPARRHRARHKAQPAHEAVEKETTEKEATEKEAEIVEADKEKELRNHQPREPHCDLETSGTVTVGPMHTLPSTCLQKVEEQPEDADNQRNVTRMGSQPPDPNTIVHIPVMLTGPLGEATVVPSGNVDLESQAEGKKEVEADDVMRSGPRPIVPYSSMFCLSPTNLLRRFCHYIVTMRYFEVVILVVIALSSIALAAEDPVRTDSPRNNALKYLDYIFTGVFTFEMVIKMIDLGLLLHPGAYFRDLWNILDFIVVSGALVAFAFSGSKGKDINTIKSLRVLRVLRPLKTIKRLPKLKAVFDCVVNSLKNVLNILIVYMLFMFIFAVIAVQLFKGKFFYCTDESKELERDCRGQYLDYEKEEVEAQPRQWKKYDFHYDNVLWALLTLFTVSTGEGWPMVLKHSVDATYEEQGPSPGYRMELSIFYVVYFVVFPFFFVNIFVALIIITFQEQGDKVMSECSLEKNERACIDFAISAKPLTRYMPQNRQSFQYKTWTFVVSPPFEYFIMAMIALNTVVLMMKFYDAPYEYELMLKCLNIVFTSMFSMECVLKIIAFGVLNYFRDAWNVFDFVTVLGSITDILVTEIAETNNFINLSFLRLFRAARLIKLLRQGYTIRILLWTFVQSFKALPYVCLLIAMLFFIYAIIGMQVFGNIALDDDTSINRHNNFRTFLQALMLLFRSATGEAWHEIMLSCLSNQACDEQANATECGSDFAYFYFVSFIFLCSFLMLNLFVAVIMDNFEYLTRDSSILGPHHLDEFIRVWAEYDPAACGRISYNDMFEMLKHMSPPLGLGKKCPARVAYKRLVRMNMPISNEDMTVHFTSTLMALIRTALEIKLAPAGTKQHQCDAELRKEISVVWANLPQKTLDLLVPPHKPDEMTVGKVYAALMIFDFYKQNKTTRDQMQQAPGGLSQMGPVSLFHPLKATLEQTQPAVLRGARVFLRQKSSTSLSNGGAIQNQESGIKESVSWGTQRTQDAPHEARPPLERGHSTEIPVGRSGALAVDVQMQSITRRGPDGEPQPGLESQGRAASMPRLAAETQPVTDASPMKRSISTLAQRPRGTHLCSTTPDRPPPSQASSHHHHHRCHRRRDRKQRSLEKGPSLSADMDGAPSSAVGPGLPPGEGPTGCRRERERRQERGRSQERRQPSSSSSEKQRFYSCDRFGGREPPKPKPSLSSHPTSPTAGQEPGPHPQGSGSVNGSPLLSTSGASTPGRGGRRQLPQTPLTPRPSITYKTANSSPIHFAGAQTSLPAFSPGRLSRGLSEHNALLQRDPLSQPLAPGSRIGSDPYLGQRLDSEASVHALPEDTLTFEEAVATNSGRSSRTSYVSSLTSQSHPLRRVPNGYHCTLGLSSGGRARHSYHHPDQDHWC
T3 sequence (Q02410 whole entry): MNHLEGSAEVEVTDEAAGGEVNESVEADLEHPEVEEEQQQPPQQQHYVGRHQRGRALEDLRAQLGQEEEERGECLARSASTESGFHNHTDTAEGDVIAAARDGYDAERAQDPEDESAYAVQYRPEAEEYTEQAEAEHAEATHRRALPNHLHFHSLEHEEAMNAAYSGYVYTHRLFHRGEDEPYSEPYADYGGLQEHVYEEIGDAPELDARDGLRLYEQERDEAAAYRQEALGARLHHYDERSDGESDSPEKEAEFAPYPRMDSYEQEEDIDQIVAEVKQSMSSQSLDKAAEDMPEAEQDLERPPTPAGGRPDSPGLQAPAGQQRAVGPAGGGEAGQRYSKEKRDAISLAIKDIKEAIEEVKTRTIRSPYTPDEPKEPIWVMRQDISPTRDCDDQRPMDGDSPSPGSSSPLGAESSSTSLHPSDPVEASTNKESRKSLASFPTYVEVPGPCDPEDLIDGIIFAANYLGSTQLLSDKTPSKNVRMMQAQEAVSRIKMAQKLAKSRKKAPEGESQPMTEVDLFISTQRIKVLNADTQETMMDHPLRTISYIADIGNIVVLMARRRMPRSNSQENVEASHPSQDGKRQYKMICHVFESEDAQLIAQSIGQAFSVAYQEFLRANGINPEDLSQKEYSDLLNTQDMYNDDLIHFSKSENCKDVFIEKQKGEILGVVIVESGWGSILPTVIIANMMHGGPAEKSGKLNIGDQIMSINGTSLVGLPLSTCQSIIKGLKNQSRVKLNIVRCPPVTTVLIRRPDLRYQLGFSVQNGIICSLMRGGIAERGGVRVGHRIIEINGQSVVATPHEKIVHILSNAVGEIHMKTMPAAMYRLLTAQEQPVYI
Experiment [7] addresses T3, Voltage-gated N-type calcium channel alpha-1B subunit/Amyloid beta A4 precursor protein-binding family A member 1. Type of experiment: protein assay. The source holds these as a separate data set.
The target of experiment [8] is T4, Microphthalmia-associated transcription factor (Homo sapiens, UniProt O75030).
T4 sequence (O75030 whole entry): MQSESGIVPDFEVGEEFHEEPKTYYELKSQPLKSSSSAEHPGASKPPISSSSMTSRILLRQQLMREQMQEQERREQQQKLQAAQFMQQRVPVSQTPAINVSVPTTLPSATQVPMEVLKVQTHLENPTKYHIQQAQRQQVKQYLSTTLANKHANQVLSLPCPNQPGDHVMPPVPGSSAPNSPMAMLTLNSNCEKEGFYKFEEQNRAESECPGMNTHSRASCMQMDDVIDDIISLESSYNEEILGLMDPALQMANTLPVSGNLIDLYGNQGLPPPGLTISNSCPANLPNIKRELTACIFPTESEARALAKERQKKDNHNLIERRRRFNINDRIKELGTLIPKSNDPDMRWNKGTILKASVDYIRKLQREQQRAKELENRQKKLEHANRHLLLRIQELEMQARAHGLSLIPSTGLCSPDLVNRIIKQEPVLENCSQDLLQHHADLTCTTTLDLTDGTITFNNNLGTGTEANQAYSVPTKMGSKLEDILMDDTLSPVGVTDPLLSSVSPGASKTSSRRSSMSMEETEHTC
As to the kind of experiment: TRPM1 promoter luciferase signal decrease, dose response, MITF inhibitor project, cell-based, SK-MEL-5, cherry-picked, set 3 (AID 493073).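 Note: SK-MEL-5 melanoma cells with luciferase driven by the MITF target TRPM1 promoter.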 It is filed as functional.

Experiment [9] deals with T5, Heat shock factor protein 1 (Mus musculus, UniProt P38532).
T5 sequence (P38532 whole entry): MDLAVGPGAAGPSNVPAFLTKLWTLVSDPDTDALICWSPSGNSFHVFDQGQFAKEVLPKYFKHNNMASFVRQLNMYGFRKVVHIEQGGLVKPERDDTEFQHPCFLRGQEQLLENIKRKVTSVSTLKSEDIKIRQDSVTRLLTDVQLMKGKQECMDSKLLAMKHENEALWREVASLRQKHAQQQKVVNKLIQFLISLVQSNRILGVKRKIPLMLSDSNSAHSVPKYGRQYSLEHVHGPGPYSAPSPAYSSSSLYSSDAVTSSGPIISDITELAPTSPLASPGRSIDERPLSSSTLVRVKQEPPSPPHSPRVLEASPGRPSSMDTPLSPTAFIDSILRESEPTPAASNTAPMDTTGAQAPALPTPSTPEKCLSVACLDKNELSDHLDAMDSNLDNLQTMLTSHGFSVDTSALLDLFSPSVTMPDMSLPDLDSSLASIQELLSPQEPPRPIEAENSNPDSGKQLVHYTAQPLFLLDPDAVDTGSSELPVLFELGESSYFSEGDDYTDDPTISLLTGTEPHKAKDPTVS
In words: HSF1 potentiators in luciferase reporter cells, confirmation, cell-based, NIH3T3, luminescence, dose retest (AID 435004).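 Note: stress induced by proteasome inhibitor MG132 added 30 min after compound; luciferase reporter driven by HSF1 response element in NIH3T3 cells; actives raise luminescence as potentiators of the MG132 stress response.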 It is filed as functional.

For experiment [10], the target named is Glyceraldehyde-3-phosphate dehydrogenase (Homo sapiens, UniProt P04406).
Sequence of Glyceraldehyde-3-phosphate dehydrogenase (P04406 whole entry): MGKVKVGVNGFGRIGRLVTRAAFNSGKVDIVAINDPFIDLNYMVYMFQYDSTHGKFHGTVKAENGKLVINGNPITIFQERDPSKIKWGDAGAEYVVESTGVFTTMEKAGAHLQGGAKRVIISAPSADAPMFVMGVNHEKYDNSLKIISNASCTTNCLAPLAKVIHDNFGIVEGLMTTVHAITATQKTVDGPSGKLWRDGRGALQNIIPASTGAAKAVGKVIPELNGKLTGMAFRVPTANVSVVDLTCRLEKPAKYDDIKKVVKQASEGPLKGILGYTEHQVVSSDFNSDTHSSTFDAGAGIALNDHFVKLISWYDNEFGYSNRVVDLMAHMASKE
For experiment [11], the target named is T6, Alkaline phosphatase, tissue-nonspecific isozyme (Homo sapiens, UniProt P05186).
T6 sequence (P05186 whole entry): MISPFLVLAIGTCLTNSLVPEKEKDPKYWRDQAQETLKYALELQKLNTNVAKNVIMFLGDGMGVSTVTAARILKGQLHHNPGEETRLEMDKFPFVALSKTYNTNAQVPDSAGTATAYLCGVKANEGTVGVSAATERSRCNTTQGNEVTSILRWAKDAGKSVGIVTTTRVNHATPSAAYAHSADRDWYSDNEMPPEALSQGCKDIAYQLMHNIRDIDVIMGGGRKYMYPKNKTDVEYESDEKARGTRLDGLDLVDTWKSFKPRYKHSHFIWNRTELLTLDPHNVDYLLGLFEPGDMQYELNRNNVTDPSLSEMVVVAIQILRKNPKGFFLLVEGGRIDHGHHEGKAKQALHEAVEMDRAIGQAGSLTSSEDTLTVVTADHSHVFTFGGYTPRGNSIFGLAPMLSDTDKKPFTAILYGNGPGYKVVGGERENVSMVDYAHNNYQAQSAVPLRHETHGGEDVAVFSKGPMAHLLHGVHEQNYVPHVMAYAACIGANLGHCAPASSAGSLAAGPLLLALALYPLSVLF
In words: human TNAP enzyme inhibitors, SAR follow-up, biochemical, luminescent, dose response (AID 1056).

Experiment [12] concerns the target DNA dC->dU-editing enzyme APOBEC-3G (Homo sapiens, UniProt Q9HC16). As to the kind of experiment: Dose Response confirmation of small molecule APOBEC3G DNA Deaminase Inhibitors via a fluorescence-based single-stranded DNA deaminase assay. [Related pubchem assays (depositor defined):AID493012, AID493028]. It is filed as functional.
The target of experiment [13] is T7, Rac GTPase-activating protein 1 (Homo sapiens, UniProt Q9H0H5).
T7 sequence (Q9H0H5 whole entry): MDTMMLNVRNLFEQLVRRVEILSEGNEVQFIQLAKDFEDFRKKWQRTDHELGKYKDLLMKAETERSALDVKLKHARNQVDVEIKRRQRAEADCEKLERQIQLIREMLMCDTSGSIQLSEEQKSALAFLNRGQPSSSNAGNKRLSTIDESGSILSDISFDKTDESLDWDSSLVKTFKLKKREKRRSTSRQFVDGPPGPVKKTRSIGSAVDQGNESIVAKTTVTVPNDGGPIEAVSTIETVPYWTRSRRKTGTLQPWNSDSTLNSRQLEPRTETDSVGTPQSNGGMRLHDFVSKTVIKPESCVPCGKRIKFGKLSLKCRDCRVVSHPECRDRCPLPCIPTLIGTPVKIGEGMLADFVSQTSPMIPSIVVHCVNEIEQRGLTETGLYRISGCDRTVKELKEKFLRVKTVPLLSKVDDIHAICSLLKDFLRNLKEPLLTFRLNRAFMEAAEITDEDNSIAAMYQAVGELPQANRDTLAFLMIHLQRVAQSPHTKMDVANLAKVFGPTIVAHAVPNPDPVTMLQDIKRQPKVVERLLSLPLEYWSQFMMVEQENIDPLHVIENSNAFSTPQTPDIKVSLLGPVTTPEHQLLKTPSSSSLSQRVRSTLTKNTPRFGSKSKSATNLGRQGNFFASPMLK
In words: MgcRacGAP GTPase-activating activity inhibitors, confirmation, biochemical, ADP Hunter fluorescence, primary and confirmatory (AID 624330). It is filed as functional.

The target in experiment [14] is DNA dC->dU-editing enzyme APOBEC-3A (Homo sapiens, UniProt P31941). As to the kind of experiment: APOBEC3A DNA deaminase inhibitors, dose response, biochemical (AID 504722). Type of experiment: functional.
The target of experiment [15] is T8, Hexokinase (Trypanosoma brucei, UniProt Q38C41).
T8 sequence (Q38C41 whole entry): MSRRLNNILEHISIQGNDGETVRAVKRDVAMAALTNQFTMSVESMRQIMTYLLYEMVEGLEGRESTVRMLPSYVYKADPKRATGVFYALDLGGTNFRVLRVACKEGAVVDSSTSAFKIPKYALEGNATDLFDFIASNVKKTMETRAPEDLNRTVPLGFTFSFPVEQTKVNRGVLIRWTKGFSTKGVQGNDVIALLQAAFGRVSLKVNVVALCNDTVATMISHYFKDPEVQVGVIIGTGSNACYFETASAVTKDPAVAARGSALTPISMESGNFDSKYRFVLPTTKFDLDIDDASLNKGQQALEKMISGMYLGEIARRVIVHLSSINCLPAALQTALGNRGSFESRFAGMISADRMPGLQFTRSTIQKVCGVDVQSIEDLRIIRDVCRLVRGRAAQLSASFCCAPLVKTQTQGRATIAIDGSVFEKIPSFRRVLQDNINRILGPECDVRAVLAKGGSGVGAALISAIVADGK
In words: Confirmation assay for inhibitors of Trypanosoma brucei hexokinase 1-Analogue-first series. [Related pubchem assays (depositor defined):AID1430, AID1632, AID2516, AID2560, AID2579, AID2600, AID449725, AID492951]. Type of experiment: functional.

Here are results for 13 compounds from ChEMBL document CHEMBL1201862, “PubChem BioAssay data set” (2004).

Activity calls are given as the source filed them. Cut-off read from the data, not from the text of the source, for most assays here: actives have a measured IC50 and inactives only a lower limit. Bounds are passed on as bounds.

T2 sequence (Q9UBE0 whole entry): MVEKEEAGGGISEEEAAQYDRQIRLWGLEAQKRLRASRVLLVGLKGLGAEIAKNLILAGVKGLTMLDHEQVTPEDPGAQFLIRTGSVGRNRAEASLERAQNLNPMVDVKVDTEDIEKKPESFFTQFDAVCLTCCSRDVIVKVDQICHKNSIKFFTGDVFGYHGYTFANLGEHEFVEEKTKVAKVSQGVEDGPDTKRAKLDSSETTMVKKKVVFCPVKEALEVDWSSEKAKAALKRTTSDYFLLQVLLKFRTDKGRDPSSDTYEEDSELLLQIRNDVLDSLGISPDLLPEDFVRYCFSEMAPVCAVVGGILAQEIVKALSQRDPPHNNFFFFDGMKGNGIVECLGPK
T2 sequence (Q9UBT2 whole entry): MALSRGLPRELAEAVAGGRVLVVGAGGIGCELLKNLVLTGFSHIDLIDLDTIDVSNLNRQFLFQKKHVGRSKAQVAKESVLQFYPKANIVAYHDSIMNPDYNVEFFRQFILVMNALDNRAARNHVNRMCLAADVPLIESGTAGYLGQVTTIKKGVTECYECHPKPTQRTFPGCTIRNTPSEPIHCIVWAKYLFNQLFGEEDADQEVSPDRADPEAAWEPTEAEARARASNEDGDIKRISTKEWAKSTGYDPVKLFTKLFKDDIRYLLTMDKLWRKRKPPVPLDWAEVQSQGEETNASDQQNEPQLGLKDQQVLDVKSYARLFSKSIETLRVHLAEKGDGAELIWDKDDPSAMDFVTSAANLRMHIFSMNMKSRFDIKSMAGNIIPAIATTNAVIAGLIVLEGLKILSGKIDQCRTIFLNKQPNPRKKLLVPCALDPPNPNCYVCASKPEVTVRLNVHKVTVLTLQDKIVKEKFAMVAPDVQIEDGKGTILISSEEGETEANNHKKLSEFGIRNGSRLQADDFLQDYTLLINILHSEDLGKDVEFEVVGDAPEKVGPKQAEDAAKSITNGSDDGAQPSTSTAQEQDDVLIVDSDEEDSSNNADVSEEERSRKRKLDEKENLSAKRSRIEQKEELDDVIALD
T1 sequence (P98170 whole entry): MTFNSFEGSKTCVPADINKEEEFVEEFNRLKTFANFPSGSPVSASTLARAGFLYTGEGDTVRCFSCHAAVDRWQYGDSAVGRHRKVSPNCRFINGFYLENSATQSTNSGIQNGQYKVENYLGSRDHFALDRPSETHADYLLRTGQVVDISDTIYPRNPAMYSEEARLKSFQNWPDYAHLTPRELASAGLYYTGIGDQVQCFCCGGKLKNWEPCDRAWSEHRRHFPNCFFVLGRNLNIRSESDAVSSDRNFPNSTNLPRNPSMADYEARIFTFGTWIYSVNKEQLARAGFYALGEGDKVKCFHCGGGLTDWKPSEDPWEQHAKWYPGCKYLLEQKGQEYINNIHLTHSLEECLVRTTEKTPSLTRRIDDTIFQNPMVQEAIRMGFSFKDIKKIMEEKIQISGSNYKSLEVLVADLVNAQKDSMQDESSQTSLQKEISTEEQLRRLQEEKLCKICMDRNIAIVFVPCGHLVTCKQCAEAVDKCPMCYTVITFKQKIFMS

The term IC50 denotes the point on the concentration scale where inhibition reaches its midpoint. Consider `c1c(CN2CCCCC2)n[nH]c1C1CCCCC1`, for which the IC50 in [1] was > 100 µM (not active); in [2] it was > 100 µM (inactive).
Usually AC50 stands for the concentration giving half of the maximal activity seen. In the case of `O=C1C(C2=NC(c3ccccn3)C3C(=O)N(c4ccc(Cl)cc4Cl)C(=O)C23)=C(O)c2ccccc21` (configuration not stated), the IC50 in [3] is 34.6 µM (active); in experiment [5], 15 µM (active). Besides, the AC50 in experiment [4] was 13.6 µM (active).
Usually EC50 stands for the concentration giving half of the maximal effect. For the compound `CCOc1cc(/C=C\[N+](=O)[O-])ccc1OCC(=O)N1CCOCC1`, the 50% inhibitory concentration (IC50) in experiment [6] was 9.89 µM (active); in experiment [7], 29.4 µM (active). For the same compound, the AC50 in experiment [8] was 7.35 µM (active). Moreover, the EC50 in experiment [9] is 11 µM (active).
Turning to `Cc1ccccc1S(=O)(=O)Nc1nc2ccccc2nc1Cl`, the values for the half-maximal inhibitory concentration (IC50) in [10] and in experiment [11] were > 100 µM (not active) and > 100 µM (inactive), respectively.
`N#Cc1c(=O)c2nc(NCc3ccccc3)ncc2n2ccccc12`: in experiment [3], the IC50 is 14.3 µM (active).
Take `CN1CCN(C(=O)Cc2nc3ccccc3[nH]2)CC1`: the results for the half-inhibitory concentration (IC50) in experiment [1] and in [2] were > 100 µM (not active) and > 100 µM (inactive), respectively.
For the compound `O=C(Nc1nnc(S)s1)c1ccco1`, the half-maximal inhibitory concentration (IC50) in experiment [12] is 5.51 µM (active); in experiment [13] it was 102 µM (active); in experiment [14], > 100 µM (inactive).
In the case of `COc1ccc(CC(=O)Nc2cc(Cl)ccc2C(=O)O)cc1`, in experiment [15], the IC50 is > 25 µM (inactive).
With `COc1ccc(OC)c(S(=O)(=O)n2cc(C(N)=O)c3ccccc32)c1`, the figures for the IC50 in experiment [10] and in experiment [11] were > 100 µM (not active) and > 100 µM (inactive), respectively.
Take `Cc1ccc(N(CC(O)COCc2ccco2)S(=O)(=O)c2ccc(C)cc2)cc1` (configuration not stated): the IC50 in experiment [6] was 28 µM (active); in [7] it was > 50 µM (inactive).
Consider `CC(C)c1cccc(C(=O)Nc2cc(Cl)ccc2C(=O)O)c1`, for which the IC50 in [15] was > 25 µM (inactive).
For the compound `C/C(Cn1nnc([N+](=O)[O-])n1)=N\NC(=O)c1ccc(C)cc1`, the results for the IC50 in experiment [1] and in experiment [2] were > 100 µM (not active) and > 100 µM (inactive), respectively.
Regarding `COC(=O)c1cc(-c2ccc3ccccc3c2)[nH]n1`, the IC50 was > 100 µM (not active) in experiment [10] and 0.6 µM (active) in experiment [11].
